# Test results reported in patent US20060252733A1, “Betulin, betulin derivatives, betulinic acid and betulinic acid derivatives as novel therapeutics in the treatment of disease of lipid and/or glucose metabolism” (Novelix Pharmaceuticals, Inc., priority 2005, published 2006).
# Several values for one entry are separate records, joined by “and”; a condition that tells them apart may be missing. Equal entries are not always repeated.
# Key:
# [1] = test system: hepatic low density lipoprotein (LDL) receptors; details: animals; by increasing the expression of hepatic LDL receptors; cited from earlier work
# [2] = test system: human lung cancer cell line (A549); experiment: NVX-207 IC50/IC80 concentrations in A549 cell cultures; format: cell-based; details: A549 cells
# [3] = test system: human lung cancer cell line (A549); experiment: Global gene expression analysis (Affymetrix gene chips) after NVX-207 treatment; format: cell-based
# Procedure: For global gene expression analysis, total RNA was isolated from sub-confluent cell cultures at 4 and 14 hours after addition of NVX-207. […] For each time point and concentration, respectively, total RNA form 3 equally treated cultures was pooled and used for gene chip analysis. The experiment was repeated once. Four and 14 hours after addition of NVX-207, cells were washed with PBS and lysed directly in the culture dish with RNA-Bee according to the manufacturers instructions. Total RNA was then analyzed by using Affymetrix gene chips according to the manufacturers instructions.
# Apolipoprotein A1 = molecular target: T1, Apolipoprotein A1 (Bos taurus, UniProt P15497); experiment: Identification of NVX-207 binding proteins (Sulfo-SBED biotin label transfer, 2-D gel, MALDI-TOF-MS); details: Fetal Calf Serum, NVX-207 coupled to Sulfo-SBED at 5 μg/ml, with or without 20-fold molar excess of unlabeled NVX-207
# T1 construct: from tissue; host or cells: fetal calf serum
# T1 sequence (P15497 25-265 limits assumed): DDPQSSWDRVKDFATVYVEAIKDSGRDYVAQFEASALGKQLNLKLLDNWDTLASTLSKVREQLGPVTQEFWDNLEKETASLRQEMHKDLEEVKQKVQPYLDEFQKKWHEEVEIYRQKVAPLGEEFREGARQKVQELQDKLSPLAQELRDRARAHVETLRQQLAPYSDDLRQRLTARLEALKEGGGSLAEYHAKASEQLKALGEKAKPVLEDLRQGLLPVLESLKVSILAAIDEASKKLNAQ
# Text: The presence of a primary amine group on NVX-207, a unique feature of this derivative compared to other known betulinic acid derived compounds, allows the coupling of other chemical compounds. A commercially available kit from Pierce was used to couple NVX-207 with biotin (Pierce-Sulfo-BED). This procedure allows the identification of NVX-207 binding proteins in protein lysates from any source. This procedure is generically illustrated in FIG. 2. In short, the amine groups of NVX-207 are modified via the Sulfo-NHS moiety of Sulfo-SBED. This derivatized NVX-207 is then incubated in the dark with a lysate or with a purified putative “prey” protein. The bait and prey complex is then captured or trapped by exposing the sample to high-intensity UV light, which activates the phenylazide moiety of Sulfo-SBED. This photoreactive group covalently links to the bound prey protein, capturing the interacting complex. […] The resulting biotin derivatized complex or prey protein can be detected using streptavidin-HRP or an anti-biotin antibody and chemiluminescent detection. […]
# NVX-207 (at 5 μg/ml final concentration) coupled to […] with or without a 20-fold molar excess of unlabeled NVX-207 and resolved by 2-D gel electrophoresis. […] Several spots of similar molecular weight (˜24 kDa) and differing IP (in the range of 4.8 to 5.6) were detected by streptavidin-POD after 2-dimensional (2-D) gel electrophoresis.
# [4] = test system: human melanoma cell line (518A2); experiment: Cell survival (cell counts) after 3 days of treatment; details: for Survival in % / Survival (%): 3 days, vs untreated controls (=100%)
# Procedure: Induction of cell death was evaluated in a human melanoma cell line (518A2) in the presence of simvastatin and NVX-207 alone or in combination. […] After 3 days of treatment, cell numbers were counted. Percentages of survival given are cell numbers compared to untreated controls (=100%). Experiments were repeated three times. Mean values are given.
smiles,measurement,setting,value
C=CC[C@@H]1[C@H](O)CC[C@@]2(C)[C@H]1CC[C@@H]1[C@@H]2CC[C@]2(C)[C@@H]([C@H](C)CCCC(C)C)CC[C@@H]12 [LY295427],plasma cholesterol levels,[1],reduce plasma cholesterol levels
C=C(C)[C@@H]1CC[C@]2(C(=O)OCC(N)(CO)CO)CC[C@]3(C)[C@H](CC[C@@H]4[C@@]5(C)CC[C@H](OC(C)=O)C(C)(C)[C@@H]5CC[C@]43C)[C@@H]12 [NVX-207],IC50,[2],1.5 µg/mL
same,IC80,[2],2.0 µg/mL
same,expression of the Table 1 genes with a functional role in lipid and/or glucose metabolism,"[3]; 20 listed genes incl. LDL receptor, Insulin induced gene 1, 3-hydroxy-3-methylglutaryl-Coenzyme A reductase",NVX-207-Upregulated Genes with a Functional Role in Lipid
same,Fold-Induction,[3]; gene: 3-hydroxy-3-methylglutaryl-Coenzyme A synthase 1 (soluble),1.63
same,Fold-Induction,[3]; gene: 24-dehydro-cholesterol reductase,1.25
same,Fold-Induction,[3]; gene: 216814_at,0.86
same,Fold-Induction,[3]; gene: ALEX3 protein,1.20
same,Fold-Induction,"[3]; gene: ATP synthase, H+ transporting, mitochondrial F0 complex, subunit s (factor B)",0.87
same,Fold-Induction,[3]; gene: Acetyl-Coenzyme A acetyltransferase 2 (acetoacetyl Coenzyme A thiolase),1.44
same,Fold-Induction,[3]; gene: Adenylate cyclase 9,1.50
same,Fold-Induction,[3]; gene: Ankyrin repeat domain 6,1.48
same,Fold-Induction,[3]; gene: Apoptosis inhibitor 5,1.21
same,Fold-Induction,[3]; gene: Choline kinase,1.16
same,Fold-Induction,[3]; gene: Chromosome 22 open reading frame 20,1.56
same,Fold-Induction,[3]; gene: Cyclic nucleotide gated channel alpha 1,0.79
same,Fold-Induction,[3]; gene: D15F37 (pseudogene),1.39
same,Fold-Induction,[3]; gene: DEAD (Asp-Glu-Ala-Asp) box polypeptide 54,0.66
same,Fold-Induction,[3]; gene: Exportin 6,0.89
same,Fold-Induction,[3]; gene: Farnesyl-diphosphate farnesyltransferase 1,1.89
same,Fold-Induction,"[3]; gene: Fatty-acid-Coenzyme A ligase, long-chain 3",1.31
same,Fold-Induction,[3]; gene: Glyoxalase I,1.12
same,Fold-Induction,[3]; gene: H63 breast cancer expressed gene,0.66
same,Fold-Induction,[3]; gene: HMT1 hnRNP methyltransferase-like 1,0.62
same,Fold-Induction,[3]; gene: Haspin,0.92
same,Fold-Induction,[3]; gene: Heterogeneous nuclear ribonucleoprotein A2/B1,1.30
same,Fold-Induction,[3]; gene: Homeo box B2,1.26
same,Fold-Induction,"[3]; gene: Homo sapiens cDNA FLJ11590 fis, clone HEMBA1003758.",1.56
same,Fold-Induction,"[3]; gene: Homo sapiens cDNA FLJ12075 fis, clone HEMBB1002425.",1.50
same,Fold-Induction,"[3]; gene: Homo sapiens cDNA FLJ12932 fis, clone NT2RP2004897.",1.55
same,Fold-Induction,"[3]; gene: Homo sapiens cDNA FLJ13272 fis, clone OVARC1001004.",1.58
same,Fold-Induction,"[3]; gene: Homo sapiens cDNA FLJ26120 fis, clone SYN00419",2.26
same,Fold-Induction,"[3]; gene: Homo sapiens cDNA FLJ33420 fis, clone BRACE2020028.",1.41
same,Fold-Induction,"[3]; gene: Homo sapiens cDNA FLJ46153 fis, clone TESTI4001037",0.81
same,Fold-Induction,"[3]; gene: Homo sapiens cDNA: FLJ23159 fis, clone LNG09628",1.44
same,Fold-Induction,[3]; gene: Homo sapiens full length insert cDNA clone ZE03A06,0.70
same,Fold-Induction,"[3]; gene: Homo sapiens mRNA, cDNA DKFZp586O031 (from clone DKFZp586O031)",1.13
same,Fold-Induction,"[3]; gene: Homo sapiens mRNA, cDNA DKFZp686L01105 (from clone DKFZp686L01105)",2.37 and 2.09 and 1.73
same,Fold-Induction,"[3]; gene: Homo sapiens mRNA, cDNA DKFZp779K0112 (from clone DKFZp779K0112)",1.48
same,Fold-Induction,[3]; gene: Homo sapiens transcribed sequence with weak similarity to protein ref: NP_060265.1,1.46 and 1.22
same,Fold-Induction,"[3]; gene: Homo sapiens, clone IMAGE: 5314747, mRNA",1.77
same,Fold-Induction,"[3]; gene: Homo sapiens, clone IMAGE: 6205812, mRNA",1.85
same,Fold-Induction,[3]; gene: Hypothetical protein BC008207,0.86
same,Fold-Induction,[3]; gene: Hypothetical protein DKFZp761A132,0.70
same,Fold-Induction,[3]; gene: Hypothetical protein FLB8034 PRO2158,1.45
same,Fold-Induction,[3]; gene: Hypothetical protein FLJ10997 (ZNF654 zinc finger protein 654 [Homo sapiens]),1.16
same,Fold-Induction,[3]; gene: Hypothetical protein FLJ11577,1.35
same,Fold-Induction,[3]; gene: Hypothetical protein FLJ13611,1.39
same,Fold-Induction,[3]; gene: Hypothetical protein FLJ14639,1.24
same,Fold-Induction,[3]; gene: Hypothetical protein FLJ38499,1.32
same,Fold-Induction,[3]; gene: Hypothetical protein LOC125893,1.34
same,Fold-Induction,[3]; gene: Hypothetical protein LOC126661,1.49
same,Fold-Induction,[3]; gene: Hypothetical protein LOC283680,1.26
same,Fold-Induction,[3]; gene: Hypothetical protein MAC30,1.46
same,Fold-Induction,[3]; gene: Hypothetical protein MGC34695,1.61
same,Fold-Induction,[3]; gene: Hypothetical protein PRO1496,1.46
same,Fold-Induction,[3]; gene: Insulin induced gene 1,2.56
same,Fold-Induction,[3]; gene: Isopentenyl-diphosphate delta isomerase,1.78
same,Fold-Induction,[3]; gene: Jerky homolog-like (mouse),1.23
same,Fold-Induction,[3]; gene: KIAA0101 gene product,1.23
same,Fold-Induction,[3]; gene: KIAA0335 gene product,1.38
same,Fold-Induction,[3]; gene: KIAA1450 protein,1.21
same,Fold-Induction,[3]; gene: Latrophilin 3,0.77
same,Fold-Induction,[3]; gene: Lipin 1,1.88
same,Fold-Induction,[3]; gene: Low density lipoprotein receptor (familial hypercholesterolemia),1.78
same,Fold-Induction,[3]; gene: Machado-Joseph disease (spinocerebellar ataxia 39),1.45
same,Fold-Induction,[3]; gene: Melan-A,0.60
same,Fold-Induction,[3]; gene: Mitochondrial ribosomal protein L30,1.42
same,Fold-Induction,"[3]; gene: Mucin 4, tracheobronchial",0.79
same,Fold-Induction,[3]; gene: Mucolipin 3,1.39
same,Fold-Induction,[3]; gene: Natural killer-tumor recognition sequence,1.45 and 1.28
same,Fold-Induction,[3]; gene: Neurolysin (metallopeptidase M3 family),1.41
same,Fold-Induction,[3]; gene: Nicotinamide nucleotide adenylyltransferase 2,0.73
same,Fold-Induction,[3]; gene: Pantothenate kinase 3,1.23
same,Fold-Induction,[3]; gene: Phorbol-12-myristate-13-acetate-induced protein 1,1.26
same,Fold-Induction,"[3]; gene: Phosphodiesterase 4A, cAMP-specific (phosphodiesterase E2 dunce homolog, Drosophila)",0.78
same,Fold-Induction,"[3]; gene: Pinin, desmosome associated protein",1.17
same,Fold-Induction,[3]; gene: Protocadherin 11 Y-linked,1.37
same,Fold-Induction,[3]; gene: Putative translation initiation factor,1.14
same,Fold-Induction,[3]; gene: Pyruvate dehydrogenase phosphatase isoenzyme 2,1.40
same,Fold-Induction,[3]; gene: Receptor-interacting factor 1,1.10
same,Fold-Induction,"[3]; gene: Ring finger protein 125 (T-cell RING activation protein 1, TRAC-1)",3.36
same,Fold-Induction,[3]; gene: SKI-interacting protein,1.10
same,Fold-Induction,[3]; gene: SOCS box-containing WD protein SWiP-1,1.20
same,Fold-Induction,[3]; gene: SP140 nuclear body protein,0.78
same,Fold-Induction,[3]; gene: SPTF-associated factor 65 gamma,0.69
same,Fold-Induction,"[3]; gene: Solute carrier family 2 (facilitated glucose transporter), member 6",1.76
same,Fold-Induction,"[3]; gene: Solute carrier family 7, (cationic amino acid transporter, y+ system) member 11",1.67
same,Fold-Induction,[3]; gene: Squalene epoxidase,1.60
same,Fold-Induction,[3]; gene: Stearoyl-CoA desaturase (delta-9-desaturase),1.41
same,Fold-Induction,[3]; gene: Sterol-C4-methyl oxidase-like,1.87
same,Fold-Induction,"[3]; gene: Sterol-C5-desaturase (ERG3 delta-5-desaturase homolog, fungal)-like",1.37
same,Fold-Induction,"[3]; gene: Surfactant, pulmonary-associated protein B",1.43
same,Fold-Induction,[3]; gene: Syntaxin 16,0.86
same,Fold-Induction,[3]; gene: Thyroid hormone receptor interactor 11,1.70
same,Fold-Induction,"[3]; gene: Tumor necrosis factor (ligand) superfamily, member 9",1.47
same,Fold-Induction,[3]; gene: Ubiquitin specific protease 6 (Tre-2 oncogene),1.38
same,Fold-Induction,[3]; gene: Ubiquitin specific protease 32,1.25
same,Fold-Induction,[3]; gene: Zinc finger protein 226,1.46
same,Fold-Induction,[3]; gene: Zinc finger protein 430,1.24
same,upregulation of INSIG-1,[3]; within 4 hours of the addition of NVX-207,up to 3 fold
same,binding to Apolipoprotein A1,Apolipoprotein A1,binds to Apolipoprotein A1
same,effect on statin-induced cell death,"[4]; 518A2 cells, in combination with simvastatin",reduces statin-induced cell death
same,Survival in %,[4]; NVX-207 0.5 μg/ml,94%
same,Survival in %,[4]; NVX-207 1.0 μg/ml,73%
same,Survival in %,[4]; NVX-207 2.0 μg/ml,26%
same,Survival in %,[4]; NVX-207 4.0 μg/ml,0%
"CCC(C)(C)C(=O)O[C@H]1C[C@@H](C)C=C2C=C[C@H](C)[C@H](CC[C@@H]3C[C@@H](O)CC(=O)O3)[C@H]21 [Simvastatin, reference compound]",Survival (%),[4]; Simvastatin 0.5 μmol,96%
same,Survival (%),[4]; Simvastatin 1.0 μmol,40%
same,Survival (%),[4]; Simvastatin 2.0 μmol,12%
same,Survival (%),[4]; Simvastatin 4.0 μmol,3%
